Nine compounds from PubChem BioAssay (NCI) can be followed below.

Among the test systems are UACC-62 melanoma; M19-MEL melanoma; DLD-1 colon; NCI-H460 lung; XF 498 CNS; M14 melanoma; UACC-257 melanoma; LXFL 529 NSCLC; HOP-62 NSCLC; ACHN renal; OVCAR-8 ovarian; NCI-H226 lung.
What all share (test): inhibition of tumour cell growth, NCI panel, 48 h

SMILES strings stand for the structures.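 Results reflect a 48-hour exposure of cells in 96-well plates to compound at five concentrations. The concentration for full growth arrest is given as TGI.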

As for `Cc1ccc(C)c(NC(=O)CC2SC(=Nc3ccccc3Cl)NC2=O)c1` (stereo not drawn), the TGI with UACC-62 melanoma, in the assay with M19-MEL melanoma, with DLD-1 colon, in the assay on NCI-H460 lung, in the assay on XF 498 CNS and with M14 melanoma was over 100 µM each time. Further, the TGI in the assay with UACC-257 melanoma, with LXFL 529 NSCLC, with HOP-62 NSCLC, in the assay with ACHN renal, in the assay on OVCAR-8 ovarian and in the assay on NCI-H226 lung was over 100 µM in each case.

With `C[C@]12CCNC(=O)C=C1CC[C@@H]1C2CC[C@@]2(C)C1CC[C@@H]2OC(=O)COc1ccc(N(CCCl)CCCl)cc1` (stereo partly drawn), the TGI came out at 6.41 µM in the assay with UACC-62 melanoma; 18.6 µM with M19-MEL melanoma; 17.8 µM in the assay with DLD-1 colon; 7.26 µM with NCI-H460 lung; 4.89 µM in the assay on XF 498 CNS; 20.3 µM with M14 melanoma. Moreover, the TGI in the assay on UACC-257 melanoma was found to be 37.2 µM; in the assay on LXFL 529 NSCLC, 21.8 µM; in the assay with HOP-62 NSCLC, 22.2 µM; in the assay on ACHN renal it was 11.2 µM; in the assay with OVCAR-8 ovarian, 17.8 µM; with NCI-H226 lung, 28.5 µM.

For `CC(C)(C)OC(=O)c1cccnc1/C=N/O`, the TGI in the assay on UACC-62 melanoma, in the assay with M19-MEL melanoma, in the assay on DLD-1 colon, in the assay on NCI-H460 lung, in the assay on XF 498 CNS and in the assay on M14 melanoma was over 100 µM in each case. For the same compound, the TGI in the assay with UACC-257 melanoma, with LXFL 529 NSCLC, with HOP-62 NSCLC, in the assay with ACHN renal, in the assay on OVCAR-8 ovarian and in the assay with NCI-H226 lung was over 100 µM in each case.

As for `O=C1c2ccccc2C(=O)c2sc(Nc3ccccc3Cl)nc21`, the TGI with UACC-62 melanoma worked out at 17.3 µM; in the assay with M19-MEL melanoma, 3.17 µM; with DLD-1 colon, 25.1 µM; in the assay with NCI-H460 lung it was 29.6 µM; in the assay on XF 498 CNS, 30.2 µM; with M14 melanoma, 13.1 µM. Also, the TGI in the assay with UACC-257 melanoma turned out to be 21.4 µM; in the assay on LXFL 529 NSCLC it was 5.56 µM; in the assay on HOP-62 NSCLC, 33.3 µM; in the assay on ACHN renal, 14.9 µM; with OVCAR-8 ovarian it was 20.3 µM; with NCI-H226 lung, 28.6 µM.

Regarding `O=c1[nH]c(=O)n(C2OC(CO)C(O)C2O)cc1OCC(F)(F)F` (stereo not drawn), the TGI with UACC-62 melanoma, in the assay on M19-MEL melanoma, in the assay with DLD-1 colon, with NCI-H460 lung, with XF 498 CNS and in the assay on M14 melanoma was over 100 µM in each case. The TGI in the assay with UACC-257 melanoma, in the assay on LXFL 529 NSCLC, with HOP-62 NSCLC, with ACHN renal, in the assay with OVCAR-8 ovarian and in the assay on NCI-H226 lung was over 100 µM each time.

In the case of `Cc1nc2sccn2c1C(=O)NC(=O)Nc1ccc(Cl)cc1`, the TGI is over 100 µM with UACC-62 melanoma; over 100 µM with M19-MEL melanoma; over 100 µM in the assay with DLD-1 colon; over 100 µM with NCI-H460 lung; 69.2 µM in the assay with XF 498 CNS; over 100 µM in the assay with M14 melanoma. The TGI in the assay on UACC-257 melanoma, in the assay with LXFL 529 NSCLC, in the assay on HOP-62 NSCLC, in the assay on ACHN renal, in the assay with OVCAR-8 ovarian and in the assay with NCI-H226 lung was over 100 µM throughout.

For `CCOC(=O)C(CNc1ccc(O)cc1)NC(=O)c1ccccc1` (stereo not drawn), the TGI in the assay with UACC-62 melanoma is over 95 µM; with M19-MEL melanoma, over 100 µM; with DLD-1 colon it was over 100 µM; with NCI-H460 lung it was over 100 µM; in the assay on XF 498 CNS, over 100 µM; with M14 melanoma, over 100 µM. Also, the TGI in the assay with UACC-257 melanoma, in the assay on LXFL 529 NSCLC, in the assay with HOP-62 NSCLC, in the assay with ACHN renal, in the assay with OVCAR-8 ovarian and in the assay with NCI-H226 lung was over 100 µM throughout.

As to `CCOC(=O)C1([Se]c2ccccc2)CCCC1=O` (stereo not drawn), the TGI in the assay on UACC-62 melanoma was 35.2 µM; in the assay on M19-MEL melanoma, 51.1 µM; with DLD-1 colon, 32.9 µM; in the assay with NCI-H460 lung it was over 100 µM; in the assay on XF 498 CNS it was 36.9 µM; in the assay on M14 melanoma, 47.2 µM. In addition, the TGI was over 100 µM with UACC-257 melanoma; 34.2 µM in the assay on LXFL 529 NSCLC; over 100 µM in the assay on HOP-62 NSCLC; 43.2 µM with ACHN renal; 30.5 µM with OVCAR-8 ovarian; 74.8 µM in the assay with NCI-H226 lung.

For the compound `COc1cc2c(cc1C1=NC(C)(C)CO1)OCO2`, the TGI with UACC-62 melanoma, in the assay with M19-MEL melanoma, with DLD-1 colon, in the assay with NCI-H460 lung, in the assay with XF 498 CNS and in the assay with M14 melanoma was over 100 µM each time. For the same compound, the TGI in the assay with UACC-257 melanoma, in the assay with LXFL 529 NSCLC, in the assay with HOP-62 NSCLC, with ACHN renal, in the assay on OVCAR-8 ovarian and in the assay with NCI-H226 lung was over 100 µM in each case.
